These are literature values, as cited in patent US9486545B2, “Method of screening for colon cancer using biomarkers” (H. Lee Moffitt Cancer Center and Research Institute, Inc., priority 2011, dated 2016).

Molecules are shown by their SMILES.

What is called IC50 is the concentration that inhibits the measured activity by half.

This data set deals with TLR4.

As for `CCOC(=O)C1=CCCC[C@H]1S(=O)(=O)Nc1ccc(F)cc1Cl` [TAK 242, ethyl (6R)-6-[N-(2-Chloro-4-fluorophenyl)sulfamoyl]cyclohex-1-ene-1-carboxylate], the IC50 was 3.2 nM.
